Data taken from PubChem BioAssay AID2060614 (Molecular Pharmacology Branch, DTP, NCI, 2025).

Test system: 598228-144-R-J1-PDC complex spheroids, viability
Assay: Anticancer human tumor 598228-144-R-J1-PDC patient-derived serous endometrial adenocarcinoma cell line growth inhibition [CLK]
Settings: for IC50: curve of first compound; for viability, T/C: stronger effect = lower value
Summary of the method: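 Multi-cell-type spheroids combined patient-derived tumor cells with HUVEC endothelial cells and human mesenchymal stem cells. Paired agents were dosed in half-log steps down from about clinical Cmax, or from 10 microM where Cmax was unknown.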

[1] = second compound 0.0316 µM, first compound 0.000949 µM
[2] = second compound 0.0316 µM, first compound 0.003 µM
[3] = second compound 0.0316 µM, first compound 0.00949 µM
[4] = second compound 0.0316 µM, first compound 0.03 µM
[5] = second compound 0.0316 µM, first compound 0.0949 µM
[6] = second compound 0.0316 µM, first compound 0.3 µM
[7] = second compound 0.1 µM, first compound 0.000949 µM
[8] = second compound 0.1 µM, first compound 0.003 µM
[9] = second compound 0.1 µM, first compound 0.00949 µM
[10] = second compound 0.1 µM, first compound 0.03 µM
[11] = second compound 0.1 µM, first compound 0.0949 µM
[12] = second compound 0.1 µM, first compound 0.3 µM
[13] = second compound 0.316 µM, first compound 0.000949 µM
[14] = second compound 0.316 µM, first compound 0.003 µM
[15] = second compound 0.316 µM, first compound 0.00949 µM
[16] = second compound 0.316 µM, first compound 0.03 µM
[17] = second compound 0.316 µM, first compound 0.0949 µM
[18] = second compound 0.316 µM, first compound 0.3 µM
[19] = second compound 1 µM, first compound 0.000949 µM
[20] = second compound 1 µM, first compound 0.003 µM
[21] = second compound 1 µM, first compound 0.00949 µM
[22] = second compound 1 µM, first compound 0.03 µM
[23] = second compound 1 µM, first compound 0.0949 µM
[24] = second compound 1 µM, first compound 0.3 µM
[25] = second compound 3.16 µM, first compound 0.000949 µM
[26] = second compound 3.16 µM, first compound 0.003 µM
[27] = second compound 3.16 µM, first compound 0.00949 µM
[28] = second compound 3.16 µM, first compound 0.03 µM
[29] = second compound 3.16 µM, first compound 0.0949 µM
[30] = second compound 3.16 µM, first compound 0.3 µM
[31] = second compound 10 µM, first compound 0.000949 µM
[32] = second compound 10 µM, first compound 0.003 µM
[33] = second compound 10 µM, first compound 0.00949 µM
[34] = second compound 10 µM, first compound 0.03 µM
[35] = second compound 10 µM, first compound 0.0949 µM
[36] = second compound 10 µM, first compound 0.3 µM
[37] = second compound 0.0316 µM, first compound 0.0316 µM
[38] = second compound 0.0316 µM, first compound 0.1 µM
[39] = second compound 0.0316 µM, first compound 0.316 µM
[40] = second compound 0.0316 µM, first compound 1 µM
[41] = second compound 0.1 µM, first compound 0.0316 µM
[42] = second compound 0.1 µM, first compound 0.1 µM
[43] = second compound 0.1 µM, first compound 0.316 µM
[44] = second compound 0.1 µM, first compound 1 µM
[45] = second compound 0.316 µM, first compound 0.0316 µM
[46] = second compound 0.316 µM, first compound 0.1 µM
[47] = second compound 0.316 µM, first compound 0.316 µM
[48] = second compound 0.316 µM, first compound 1 µM
[49] = second compound 1 µM, first compound 0.0316 µM
[50] = second compound 1 µM, first compound 0.1 µM
[51] = second compound 1 µM, first compound 0.316 µM
[52] = second compound 1 µM, first compound 1 µM
[53] = second compound 3.16 µM, first compound 0.0316 µM
[54] = second compound 3.16 µM, first compound 0.1 µM
[55] = second compound 3.16 µM, first compound 0.316 µM
[56] = second compound 3.16 µM, first compound 1 µM
[57] = second compound 10 µM, first compound 0.0316 µM
[58] = second compound 10 µM, first compound 0.1 µM
[59] = second compound 10 µM, first compound 0.316 µM
[60] = second compound 10 µM, first compound 1 µM
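Note: spheroids exposed to compounds for seven days before readout.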
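Throughout, for viability, T/C: 100% = DMSO vehicle control wells.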

SMILES: CC(C)CC(NC(=O)C(Cc1ccccc1)NC(=O)c1cnccn1)B(O)O (stereo not drawn) + CN1CCN(c2cc(C(=O)Nc3cc4cc(-c5cnn(C)c5)ccc4cn3)ccn2)CC1
- IC50 (second compound 0.0316 µM): 4.12 nM
- IC50 (second compound 0.1 µM): 2.54 nM
- IC50 (second compound 0.316 µM): < 0.949 nM
- IC50 (second compound 1 µM): < 0.949 nM
- IC50 (second compound 3.16 µM): < 0.949 nM
- IC50 (second compound 10 µM): < 0.949 nM
- viability, T/C [1]: 124%
- viability, T/C [2]: 68.6%
- viability, T/C [3]: 0.89%
- viability, T/C [4]: 0.39%
- viability, T/C [5]: 0.34%
- viability, T/C [6]: 0.29%
- viability, T/C [7]: 137%
- viability, T/C [8]: 35.3%
- viability, T/C [9]: 0.57%
- viability, T/C [10]: 0.37%
- viability, T/C [11]: 0.35%
- viability, T/C [12]: 2.83%
- viability, T/C [13]: 19.9%
- viability, T/C [14]: 2.9%
- viability, T/C [15]: 0.32%
- viability, T/C [16]: 0.26%
- viability, T/C [17]: 0.88%
- viability, T/C [18]: 6.75%
- viability, T/C [19]: 0.79%
- viability, T/C [20]: 0.61%
- viability, T/C [21]: 0.36%
- viability, T/C [22]: 0.23%
- viability, T/C [23]: 1.86%
- viability, T/C [24]: 4.83%
- viability, T/C [25]: 1.18%
- viability, T/C [26]: 1.87%
- viability, T/C [27]: 0.3%
- viability, T/C [28]: 0.21%
- viability, T/C [29]: 1.26%
- viability, T/C [30]: 2.5%
- viability, T/C [31]: 0.91%
- viability, T/C [32]: 2.49%
- viability, T/C [33]: 0.22%
- viability, T/C [34]: 0.2%
- viability, T/C [35]: 3.91%
- viability, T/C [36]: 3.86%

SMILES: CCc1c2c(nc3ccc(O)cc13)-c1cc3c(c(=O)n1C2)COC(=O)[C@]3(O)CC + CNC(=O)c1ccc(Nc2nc(OC3CCCC3)c3c(-c4ccc5nc(C)oc5c4)c[nH]c3n2)c(OC)c1
- IC50 (second compound 0.0316 µM): 51.5 nM
- IC50 (second compound 0.1 µM): 56.4 nM
- IC50 (second compound 0.316 µM): 100 nM
- IC50 (second compound 1 µM): 61.5 nM
- IC50 (second compound 3.16 µM): 54.2 nM
- IC50 (second compound 10 µM): 33.2 nM
- viability, T/C (second compound 0.0316 µM, first compound 0.00316 µM): 91%
- viability, T/C (second compound 0.0316 µM, first compound 0.01 µM): 77.3%
- viability, T/C [37]: 65.9%
- viability, T/C [38]: 30.8%
- viability, T/C [39]: 14.4%
- viability, T/C [40]: 6.44%
- viability, T/C (second compound 0.1 µM, first compound 0.00316 µM): 106%
- viability, T/C (second compound 0.1 µM, first compound 0.01 µM): 84.5%
- viability, T/C [41]: 65.2%
- viability, T/C [42]: 38.5%
- viability, T/C [43]: 16.2%
- viability, T/C [44]: 14.9%
- viability, T/C (second compound 0.316 µM, first compound 0.00316 µM): 124%
- viability, T/C (second compound 0.316 µM, first compound 0.01 µM): 111%
- viability, T/C [45]: 97%
- viability, T/C [46]: 48.3%
- viability, T/C [47]: 21.6%
- viability, T/C [48]: 10.5%
- viability, T/C (second compound 1 µM, first compound 0.00316 µM): 117%
- viability, T/C (second compound 1 µM, first compound 0.01 µM): 95%
- viability, T/C [49]: 73.8%
- viability, T/C [50]: 33.2%
- viability, T/C [51]: 16.3%
- viability, T/C [52]: 10.8%
- viability, T/C (second compound 3.16 µM, first compound 0.00316 µM): 108%
- viability, T/C (second compound 3.16 µM, first compound 0.01 µM): 95.9%
- viability, T/C [53]: 63.9%
- viability, T/C [54]: 32.9%
- viability, T/C [55]: 17.3%
- viability, T/C [56]: 8.19%
- viability, T/C (second compound 10 µM, first compound 0.00316 µM): 110%
- viability, T/C (second compound 10 µM, first compound 0.01 µM): 85.9%
- viability, T/C [57]: 49.3%
- viability, T/C [58]: 27.5%
- viability, T/C [59]: 13.8%
- viability, T/C [60]: 9.24%

SMILES: CC1COCCN1c1cc(C2(S(C)(=N)=O)CC2)nc(-c2ccnc3[nH]ccc23)n1 (stereo not drawn) + CNC(=O)c1ccc(Nc2nc(OC3CCCC3)c3c(-c4ccc5nc(C)oc5c4)c[nH]c3n2)c(OC)c1
- IC50 (second compound 0.0316 µM): 9480 nM
- IC50 (second compound 0.1 µM): > 10000 nM
- IC50 (second compound 0.316 µM): > 10000 nM
- IC50 (second compound 1 µM): 6790 nM
- IC50 (second compound 3.16 µM): 3300 nM
- IC50 (second compound 10 µM): 2530 nM
- viability, T/C [37]: 101%
- viability, T/C [38]: 107%
- viability, T/C [39]: 100%
- viability, T/C [40]: 97.3%
- viability, T/C (second compound 0.0316 µM, first compound 3.16 µM): 73.3%
- viability, T/C (second compound 0.0316 µM, first compound 10 µM): 48.9%
- viability, T/C [41]: 105%
- viability, T/C [42]: 107%
- viability, T/C [43]: 115%
- viability, T/C [44]: 104%
- viability, T/C (second compound 0.1 µM, first compound 3.16 µM): 68.5%
- viability, T/C (second compound 0.1 µM, first compound 10 µM): 57.5%
- viability, T/C [45]: 100%
- viability, T/C [46]: 91.3%
- viability, T/C [47]: 112%
- viability, T/C [48]: 89%
- viability, T/C (second compound 0.316 µM, first compound 3.16 µM): 76.2%
- viability, T/C (second compound 0.316 µM, first compound 10 µM): 59.7%
- viability, T/C [49]: 110%
- viability, T/C [50]: 103%
- viability, T/C [51]: 90.7%
- viability, T/C [52]: 78.7%
- viability, T/C (second compound 1 µM, first compound 3.16 µM): 69.1%
- viability, T/C (second compound 1 µM, first compound 10 µM): 41.1%
- viability, T/C [53]: 89.3%
- viability, T/C [54]: 90.9%
- viability, T/C [55]: 80.4%
- viability, T/C [56]: 72.8%
- viability, T/C (second compound 3.16 µM, first compound 3.16 µM): 50.6%
- viability, T/C (second compound 3.16 µM, first compound 10 µM): 24.6%
- viability, T/C [57]: 79.6%
- viability, T/C [58]: 77.5%
- viability, T/C [59]: 85.6%
- viability, T/C [60]: 64.6%
- viability, T/C (second compound 10 µM, first compound 3.16 µM): 46.9%
- viability, T/C (second compound 10 µM, first compound 10 µM): 20.6%

SMILES: C=CC(=O)Nc1cc(Nc2nccc(-c3cn(C)c4ccccc34)n2)c(OC)cc1N(C)CCN(C)C + CNC(=O)c1ccc(Nc2nc(OC3CCCC3)c3c(-c4ccc5nc(C)oc5c4)c[nH]c3n2)c(OC)c1
- IC50 (second compound 0.0316 µM): > 300 nM
- IC50 (second compound 0.1 µM): > 300 nM
- IC50 (second compound 0.316 µM): > 300 nM
- IC50 (second compound 1 µM): > 300 nM
- IC50 (second compound 3.16 µM): > 300 nM
- IC50 (second compound 10 µM): > 300 nM
- viability, T/C [1]: 124%
- viability, T/C [2]: 113%
- viability, T/C [3]: 107%
- viability, T/C [4]: 115%
- viability, T/C [5]: 101%
- viability, T/C [6]: 105%
- viability, T/C [7]: 120%
- viability, T/C [8]: 103%
- viability, T/C [9]: 104%
- viability, T/C [10]: 104%
- viability, T/C [11]: 103%
- viability, T/C [12]: 78.3%
- viability, T/C [13]: 112%
- viability, T/C [14]: 109%
- viability, T/C [15]: 120%
- viability, T/C [16]: 93.5%
- viability, T/C [17]: 96.5%
- viability, T/C [18]: 77.7%
- viability, T/C [19]: 104%
- viability, T/C [20]: 90.3%
- viability, T/C [21]: 90.5%
- viability, T/C [22]: 99%
- viability, T/C [23]: 91.2%
- viability, T/C [24]: 94.1%
- viability, T/C [25]: 101%
- viability, T/C [26]: 102%
- viability, T/C [27]: 80.9%
- viability, T/C [28]: 87.6%
- viability, T/C [29]: 82.7%
- viability, T/C [30]: 62.3%
- viability, T/C [31]: 86.5%
- viability, T/C [32]: 86.4%
- viability, T/C [33]: 86.3%
- viability, T/C [34]: 73.1%
- viability, T/C [35]: 77.5%
- viability, T/C [36]: 60.7%
